Results: patent publication US8912176B2 (Evotec AG, priority 2009, dated 2014)
pIC50: −log10 of the molar value.

Molecular target: human H3 receptor (Homo sapiens, UniProt Q9Y5N1)
Assay: cAMP quantification assay for human H3 receptor (DiscoveRx cAMP XS+)

Sequence of human H3 receptor (Q9Y5N1 whole entry): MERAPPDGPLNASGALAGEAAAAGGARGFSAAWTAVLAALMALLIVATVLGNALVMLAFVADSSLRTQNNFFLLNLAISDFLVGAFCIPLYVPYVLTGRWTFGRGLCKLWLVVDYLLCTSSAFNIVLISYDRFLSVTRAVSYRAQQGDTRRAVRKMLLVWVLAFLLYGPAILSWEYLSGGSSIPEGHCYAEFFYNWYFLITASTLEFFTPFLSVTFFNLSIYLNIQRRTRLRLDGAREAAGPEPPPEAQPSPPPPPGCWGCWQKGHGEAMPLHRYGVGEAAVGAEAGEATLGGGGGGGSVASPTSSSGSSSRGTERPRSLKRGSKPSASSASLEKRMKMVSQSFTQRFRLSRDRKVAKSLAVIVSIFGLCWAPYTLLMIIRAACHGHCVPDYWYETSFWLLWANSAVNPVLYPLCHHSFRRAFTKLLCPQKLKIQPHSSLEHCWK

Compound | pIC50
Cc1nc(-c2ccc(C(=O)N3CC(C(=O)N4CCCN(C5CCC5)CC4)C3)cc2)no1 [Example 37, 1-cyclobutyl-4-[(1-{[4-(5-methyl-1,2,4-oxadiazol-3-yl)phenyl]carbonyl}azetidin-3-yl)carbonyl]-1,4-diazepane] | > 7.30
Cc1nnc(-c2ccc(C(=O)N3CC(C(=O)N4CCCN(C5CCC5)CC4)C3)cc2)o1 [Example 31, 1-cyclobutyl-4-[(1-{[4-(5-methyl-1,3,4-oxadiazol-2-yl)phenyl]carbonyl}azetidin-3-yl)carbonyl]-1,4-diazepane] | > 7.30
O=C(c1ccc(-c2ccncc2)cc1)N1CC(C(=O)N2CCCN(C3CCC3)CC2)C1 [Example 45, 1-cyclobutyl-4-({1-[(4-pyridin-4-ylphenyl)carbonyl]azetidin-3-yl}carbonyl)-1,4-diazepane] | > 7.30
Cc1cc(C)n(-c2ccc(C(=O)N3CC(C(=O)N4CCCN(C5CCC5)CC4)C3)cc2)n1 [Example 30, 1-cyclobutyl-4-[(1-{[4-(3,5-dimethyl-1H-pyrazol-1-yl)phenyl]carbonyl}azetidin-3-yl)carbonyl]-1,4-diazepane] | > 7.30
CC1(C)COC(c2ccc(C(=O)N3CC(C(=O)N4CCCN(C5CCC5)CC4)C3)cc2)=N1 [Example 42, 1-cyclobutyl-4-[(1-{[4-(4,4-dimethyl-4,5-dihydro-1,3-oxazol-2-yl)phenyl]carbonyl}azetidin-3-yl)carbonyl]-1,4-diazepane] | > 7.30

Further lines, results first:

pIC50 | Compound
> 7.30 | CNC(=O)c1ccc(C(=O)N2CC(C(=O)N3CCCN(C4CCC4)CC3)C2)cn1 [Example 77, 5-({3-[(4-cyclobutyl-1,4-diazepan-1-yl)carbonyl]azetidin-1-yl}carbonyl)-N-methylpyridine-2-carboxamide]
> 7.30 | O=C(C1CN(C(=O)C2CCCCC2)C1)N1CCCN(C2CCC2)CC1 [Example 4, 1-cyclobutyl-4-{[1-(cyclohexylcarbonyl)azetidin-3-yl]carbonyl}-1,4-diazepane]
> 7.30 | O=C(CN1CCC(F)(F)CC1)N1CC(C(=O)N2CCCN(C3CCC3)CC2)C1 [Example 20, 1-cyclobutyl-4-({1-[(4,4-difluoropiperidin-1-yl)acetyl]azetidin-3-yl}carbonyl)-1,4-diazepane]
> 7.30 | COC1CCC(C(=O)N2CC(C(=O)N3CCCN(C4CCC4)CC3)C2)CC1 (mixture of isomers) [Example 28, 1-cyclobutyl-4-({1-[(4-methoxycyclohexyl)carbonyl]azetidin-3-yl}carbonyl)-1,4-diazepane]
